Where two headings read alike, the source gives them in different places.
Assays:
α5β3γ2 GABAA receptors = α5β3γ2 GABAA receptors (Homo sapiens, UniProt P18507+P31644); assay: [3H]Ro15-1788 binding, membranes of Ltk cells stably expressing α5β3γ2 GABAA receptors
GABAA receptors (α5β2γ2) = target: T1, GABAA receptors (α5β2γ2) (Homo sapiens, UniProt P18507+P31644); assay: Positive allosteric modulator activity: potentiation of EC20 GABA current in oocytes; format: cell-based; settings: read-out: GABA α5 Functional Data (potentiation of EC20 GABA); @ 100 nM; ranges
T1 construct: expressed in transfected cells
Description: On day 1, 1 ng/32 nL of GABAA α5β2γ2 cDNA was injected into one oocyte. Test starts on day 2. The cDNA injected to the oocytes was a mix of alpha, beta and gamma, their ratio is 1:1:10 (by weight) and the total weight of the mixed 3 subunits to be injected in one oocyte was 1 ng in 32 nl volume. The injected oocytes can also be tested on day 3. In such case, the cDNA amount injected to the oocytes should be reduced by 20%.
1). 8 oocytes were placed in 8 chambers of OpusXpress and superfused with Modified Barth's Saline (MBS) at 3 mL/min. Glass electrodes back-filled with 3M KCl (0.5-3 megaohms) were used.
1). New oocytes were used to run new test.
3). […] Oocytes were washed with MBS for 5-10 min.
4). […] Itest was divided by IGABA to obtain potentiation (%).
Test Compounds at Multiple Doses • 1). Repeat the above steps 1), 2) and 3) in the control test. • 2). […] Divide Itest by IGABA to obtain potentiation (%). • 3). Discard all tested oocytes, new oocytes were used and the above steps 1) and 2) were repeated to test second concentration of the same compound. Each oocyte was used for only one concentration test for a single test compound. The steps were repeated for other test compounds.

[1] = ranges, inhibition of [3H]Ro15-1788 binding

T1 sequence (P31644 32-462): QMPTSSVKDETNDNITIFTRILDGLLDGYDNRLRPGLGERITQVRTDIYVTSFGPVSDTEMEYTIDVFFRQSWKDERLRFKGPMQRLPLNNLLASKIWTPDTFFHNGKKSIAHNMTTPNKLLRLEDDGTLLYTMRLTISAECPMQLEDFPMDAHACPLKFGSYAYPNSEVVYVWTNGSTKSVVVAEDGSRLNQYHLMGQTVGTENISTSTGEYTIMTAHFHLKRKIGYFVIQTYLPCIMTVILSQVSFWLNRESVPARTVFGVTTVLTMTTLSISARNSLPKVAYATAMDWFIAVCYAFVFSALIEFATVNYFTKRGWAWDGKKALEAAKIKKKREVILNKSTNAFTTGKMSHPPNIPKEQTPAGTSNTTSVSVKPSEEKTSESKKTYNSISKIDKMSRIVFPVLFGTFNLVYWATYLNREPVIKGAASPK
T1 sequence (P47870 25-512, further chain): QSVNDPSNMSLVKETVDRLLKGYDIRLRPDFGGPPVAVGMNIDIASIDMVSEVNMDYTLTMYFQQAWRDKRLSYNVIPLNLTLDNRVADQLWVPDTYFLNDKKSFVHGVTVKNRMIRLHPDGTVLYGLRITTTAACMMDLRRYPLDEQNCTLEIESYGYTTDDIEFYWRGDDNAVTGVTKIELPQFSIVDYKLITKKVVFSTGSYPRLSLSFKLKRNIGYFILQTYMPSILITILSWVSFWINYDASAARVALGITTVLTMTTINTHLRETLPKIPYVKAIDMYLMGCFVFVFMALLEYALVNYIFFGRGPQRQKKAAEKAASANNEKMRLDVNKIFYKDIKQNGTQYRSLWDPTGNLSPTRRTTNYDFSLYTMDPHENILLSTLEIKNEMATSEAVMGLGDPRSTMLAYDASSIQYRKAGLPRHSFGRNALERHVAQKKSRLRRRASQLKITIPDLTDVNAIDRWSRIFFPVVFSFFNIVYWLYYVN
T1 sequence (P18507 40-475): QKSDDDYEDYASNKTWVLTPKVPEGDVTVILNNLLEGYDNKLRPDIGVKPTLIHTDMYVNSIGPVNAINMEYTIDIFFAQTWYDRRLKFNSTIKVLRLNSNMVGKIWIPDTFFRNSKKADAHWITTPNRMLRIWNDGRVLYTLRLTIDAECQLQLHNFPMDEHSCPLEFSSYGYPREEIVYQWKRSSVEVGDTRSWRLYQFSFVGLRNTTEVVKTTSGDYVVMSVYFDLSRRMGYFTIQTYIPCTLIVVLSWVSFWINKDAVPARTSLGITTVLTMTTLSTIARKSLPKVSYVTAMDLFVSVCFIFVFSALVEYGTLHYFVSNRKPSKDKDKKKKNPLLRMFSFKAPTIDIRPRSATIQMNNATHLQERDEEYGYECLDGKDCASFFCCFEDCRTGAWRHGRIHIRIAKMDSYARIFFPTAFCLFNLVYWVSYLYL
α5β3γ2 GABAA receptors, sequence (P31644 32-462): as the sequence (P31644 32-462) above
α5β3γ2 GABAA receptors, sequence (P28472 26-473 partner): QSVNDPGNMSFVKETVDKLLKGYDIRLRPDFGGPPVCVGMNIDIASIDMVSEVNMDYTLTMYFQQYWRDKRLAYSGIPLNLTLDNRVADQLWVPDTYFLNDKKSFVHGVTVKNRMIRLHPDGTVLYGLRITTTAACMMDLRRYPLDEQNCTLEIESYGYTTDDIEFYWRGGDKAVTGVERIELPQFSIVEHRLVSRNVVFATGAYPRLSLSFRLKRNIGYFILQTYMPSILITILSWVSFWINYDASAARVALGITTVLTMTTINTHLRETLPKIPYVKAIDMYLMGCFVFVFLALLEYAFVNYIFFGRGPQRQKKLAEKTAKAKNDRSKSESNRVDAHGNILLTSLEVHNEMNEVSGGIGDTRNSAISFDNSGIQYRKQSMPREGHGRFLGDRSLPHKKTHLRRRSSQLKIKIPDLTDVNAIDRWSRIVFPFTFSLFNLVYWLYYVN
α5β3γ2 GABAA receptors, sequence (P18507 40-475): as the sequence (P18507 40-475) above

SMILES	Ki (α5β3γ2 GABAA receptors; [1]) [nM]	activation at 0.1 µM (GABAA receptors (α5β2γ2)) [%]	Ki (α5β3γ2 GABAA receptors) [nM]
COCc1nnn2c1Cc1c(C#Cc3cncc(C)c3)ncn1-c1ccc(Cl)cc1-2 [Compound 639]	< 100	20 to 50	
CC(C)c1noc(-c2ncn3c2Cc2c(Cc4cccc(F)c4)nnn2-c2cc(Cl)ccc2-3)n1 [Compound 481]	< 100	5 to 20	
COc1ccc([C@@H]2COC(c3ncn4c3Cc3cnnn3-c3cc(Cl)ccc3-4)=N2)cc1 [Compound 521]	< 100	20 to 50	
COc1ccc2c(c1)-n1nncc1Cc1c(C3=NC[C@H](c4ccccc4)O3)ncn1-2 [Compound 511]	< 100	5 to 20	
Clc1cccc([C@@H]2COC(c3ncn4c3Cc3cnnn3-c3cc(Cl)ccc3-4)=N2)c1 [Compound 515]	< 100	5 to 20	
COCc1nnc2n1Cc1c(C#Cc3ccc(OC)cn3)ncn1-c1ccc(OC)cc1-2 [Compound 603]	< 100	> 50	
COCc1nnc2n1Cc1c(C#Cc3ccn4ccnc4c3)ncn1-c1ccc(OC)cc1-2 [Compound 675]	< 100	> 50	
COc1ccc2c(c1)-n1nncc1Cc1c(C#Cc3cncc(C)c3)ncn1-2 [Compound 617]	< 100	5 to 20	
CC(C)C#Cc1ccc2c(c1)-n1nncc1Cc1c(Br)ncn1-2 [Compound 454]		5 to 20	
COCc1nnc2n1Cc1c(C3=NC[C@H](c4ccc(Cl)cc4)O3)ncn1-c1ccc(Cl)cc1-2 [Compound 718]	< 100	20 to 50	
COCc1nnc2n1Cc1c(C#Cc3cnc(OC)s3)ncn1-c1ccc(OC)cc1-2 [Compound 619]	< 100	5 to 20	
Cc1nnc(-c2ncn3c2Cc2cnnn2-c2cc(Cl)ccc2-3)o1 [Compound 508]	< 100	5 to 20	
CC(C)(C)C#Cc1ncn2c1Cc1cnnn1-c1cc(Cl)ccc1-2 [Compound 534]	< 100	5 to 20	
Clc1ccc2c(c1)-c1nnc(COCc3ccccc3)n1Cc1c(-c3ncco3)ncn1-2 [Compound 350]		> 50	
Cc1noc(-c2ncn3c2Cc2cnnn2-c2cc(-c4ccccc4)ccc2-3)n1 [Compound 474]	< 100	5 to 20	
C#Cc1ncn2c1Cc1cnnn1-c1cc(Cl)ccc1-2 [Compound 356]		> 50	
COCc1nnc2n1Cc1c(C#CCc3cccc(F)c3)ncn1-c1ccc(Cl)cc1-2 [Compound 421]		20 to 50	
COCc1nnc2n1Cc1c(C#Cc3ccnn3C)ncn1-c1ccc(OC)cc1-2 [Compound 686]		> 50	
C#Cc1ncn2c1Cn1c(COc3ccccc3F)nnc1-c1cc(Cl)ccc1-2 [Compound 353, 15-chloro-5-ethynyl-9-(2-fluorophenoxymethyl)-2,4,8,10,11-pentaazatetracyclo[11.4.0.0^2,6.0^8,12]heptadeca-1(17),3,5,9,11,13,15-heptaene]		> 50	
COc1ccc2c(c1)-n1nncc1Cc1c(C#CCc3cccc(Cl)c3)ncn1-2 [Compound 417]		5 to 20	
COCc1nnc2n1Cc1c(C#CCc3cccc(Cl)c3)ncn1-c1ccc(Cl)cc1-2 [Compound 422]		20 to 50	
COCc1nnc2n1Cc1c(C#Cc3ccn(C)n3)ncn1-c1ccc(OC)cc1-2 [Compound 687]		> 50	
COCc1nnc2n1Cc1c(C#Cc3cnc(C)[nH]3)ncn1-c1ccc(OC)cc1-2 [Compound 685]		> 50	
COCc1nnc2n1Cc1c(C#Cc3ncc(C)s3)ncn1-c1ccc(OC)cc1-2 [Compound 601]	< 100		
COc1ccc2c(c1)-n1nncc1Cc1c(C#Cc3ccc(OC(F)F)nc3)ncn1-2 [Compound 693]			< 100
COc1n[nH]cc1C#Cc1ncn2c1Cc1cnnn1-c1cc(Cl)ccc1-2 [Compound 662]			< 100
COc1ccc(C#Cc2ncn3c2Cc2cnnn2-c2cc(Cl)ccc2-3)nc1 [Compound 532]			< 100

SMILES	Ki (α5β3γ2 GABAA receptors; [1]) [nM]	activation at 0.1 µM (GABAA receptors (α5β2γ2)) [%]	Ki (α5β3γ2 GABAA receptors) [nM]
Fc1ccc(-n2cc(-c3ncn4c3Cc3cnnn3-c3cc(Cl)ccc3-4)nn2)cc1 [Compound 525]	< 100		
Fc1ccc(OCc2ncn3c2Cc2cnnn2-c2cc(Cl)ccc2-3)cc1 [Compound 545]	< 100		
COCc1nnc2n1Cc1c(C#Cc3ccc(SC)nc3)ncn1-c1ccc(OC)cc1-2 [Compound 665]	100 to 1000		
COCc1nnc2n1Cc1c(C#Cc3cccc(OC)n3)ncn1-c1ccc(Cl)cc1-2 [Compound 611]	< 100		
COCc1nnc2n1Cc1c(C#Cc3ncc(C)cn3)ncn1-c1ccc(Cl)cc1-2 [Compound 600]	100 to 1000		
COCc1nnc2n1Cc1c(C)ncn1-c1ccc(OC)cc1-2 [Compound 329]	> 1000		
COCc1nnc2n1Cc1c(C#Cc3cnc(OC)nc3)ncn1-c1ccc(OC)cc1-2 [Compound 584]	100 to 1000		
Cn1ccc(C#Cc2ncn3c2Cc2cnnn2-c2cc(Cl)ccc2-3)n1 [Compound 661]			< 100
COc1ccc2c(c1)-n1nncc1Cc1c(C#CCc3ccccc3OC(F)(F)F)ncn1-2 [Compound 420]		5 to 20	
Cc1noc(-c2ncn3c2Cc2c(Cc4cccc(F)c4)nnn2-c2cc(Cl)ccc2-3)n1 [Compound 477]	< 100		
COCc1nnc2n1Cc1c(C#Cc3cnc(C)nc3)ncn1-c1ccc(OC)cc1-2 [Compound 594]	100 to 1000		
COCc1nnn2c1Cc1c(C#Cc3ccn(C)n3)ncn1-c1ccc(Cl)cc1-2 [Compound 643]	< 100		
CCOC(=O)c1ncn2c1Cc1c(Cc3ccccc3Cl)nnn1-c1cc(C)ccc1-2 [Compound 54]	< 100		
COCc1nnc2n1Cc1c(C#CCc3cccc(OC(F)(F)F)c3)ncn1-c1ccc(Cl)cc1-2 [Compound 423]		5 to 20	
Clc1cccc(COCc2ncn3c2Cc2cnnn2-c2cc(Cl)ccc2-3)c1 [Compound 542]			100 to 1000
COc1ccc2c(c1)-n1nncc1Cc1c(C#Cc3ccc(OC)nn3)ncn1-2 [Compound 694]	< 100		
CC(C)c1noc(-c2ncn3c2Cc2c(Cc4ccc(F)cc4)nnn2-c2cc(Cl)ccc2-3)n1 [Compound 489]	< 100		
COCc1nnc2n1Cc1c(C#Cc3cc(C)ccn3)ncn1-c1ccc(Cl)cc1-2 [Compound 560]	< 100		
CC(C)c1noc(-c2ncn3c2Cc2c(Cc4ccc(F)cc4)nnn2-c2cc(OC(F)(F)F)ccc2-3)n1 [Compound 483]	< 100		
COc1ccc2c(c1)-n1nncc1Cc1c(C3=NCC(C4CCCCC4)O3)ncn1-2 (racemic) [Compound 690]			100 to 1000
Fc1ccccc1OCc1ncn2c1Cc1cnnn1-c1cc(Cl)ccc1-2 [Compound 547]	100 to 1000		
COCc1nnc2n1Cc1c(C#Cc3cnc(C)cn3)ncn1-c1ccc(OC)cc1-2 [Compound 588]	< 100		
COc1ccc2c(c1)-n1nncc1Cc1c(C#CCc3cccc(F)c3)ncn1-2 [Compound 419]		20 to 50	
COCc1nnc2n1Cc1c(C#Cc3ccc(OC(C)C)nc3)ncn1-c1ccc(Cl)cc1-2 [Compound 708]	< 100		
Cc1ncc(C#Cc2ncn3c2Cc2cnnn2-c2cc(Cl)ccc2-3)[nH]1 [Compound 659]			< 100
COc1ccc2c(c1)-c1nnc(COC(F)F)n1Cc1c(C#Cc3ccc(OC)nc3)ncn1-2 [Compound 620]	< 100		
COCc1nnc2n1Cc1c(C#Cc3ccc(F)cn3)ncn1-c1ccc(Cl)cc1-2 [Compound 572]	< 100		

Source: patent US11414425B2 (priority 2018, dated 2022)
